The series in a line: PN005: safety and tolerability. The series is classed as in vivo, human. The text has this: The visual disturbances tended to cease with eye opening and to recur with eye closure and were generally not disturbing to the subjects. […] No serious adverse events were reported, and none of the subjects discontinued treatment because of an adverse event. […] 5.3.3.1.3.2 Other Safety Assessments No clinically significant trends in safety laboratory parameters or vital signs were observed. […] No changes of ≥60 msec from baseline occurred, and no subject has a QTc interval ≥500 msec. […] The most common adverse events were headache, vivid dreams, and visual and/or auditory disturbances or hallucinations (typically described as seeing geometric shapes, colors, lights, and/or movement and hearing tones like from a telephone or electronic music). […] Clinical safety was monitored throughout the study by adverse events, clinical laboratory tests, vital signs, ECGs, and ECG telemetry.

Where [1] appears, read: single dose 8 mg, N = 7, middle-aged and elderly female subjects, Study PN005.

For the compound `CC(C)c1ccc(CC(=O)N[C@H](C)c2ccc(OCC(F)(F)F)cn2)cc1` [CX-8998], the Tolerability result (single 8 mg dose) is on record as “well tolerated”. For the same compound, under setting [1], the Alanine aminotransferase increased was 1 (14.3) n (%), the “At least 1 adverse event” value is 6 (85.7) n (%), the Dry mouth is reported as 1 (14.3) n (%) and the “Eye Disorders” value is recorded as 1 (14.3) n (%). Under setting [1], the “Gastrointestinal Disorders” value is listed as 3 (42.9) n (%), the Hot flush is listed as 1 (14.3) n (%), the Hypoaesthesia oral is reported as 1 (14.3) n (%) and the Inappropriate laughter is listed as 2 (28.6) n (%). Moreover, under setting [1], the “Infections and Infestations” value is given as 1 (14.3) n (%); the Investigations is 1 (14.3) n (%); the Irritability is reported as 1 (14.3) n (%); the Nausea is on record as 1 (14.3) n (%). Under setting [1], the Nervousness was 1 (14.3) n (%), the “Psychiatric Disorders” value is 4 (57.1) n (%), the Racing thoughts was 1 (14.3) n (%) and the Shingles is on record as 1 (14.3) n (%). Also, under setting [1], the “Vascular Disorders” value is on record as 1 (14.3) n (%), the Vision blurred is listed as 1 (14.3) n (%) and the Vomiting is 1 (14.3) n (%).
